Measured values from patent US11608323B2 (SYNGENTA LIMITED, priority 2013, dated 2023).

Columns and labels:
Type in all cases: in vivo
ZEAMX [1] = experiment: Pre-emergence herbicidal activity, glasshouse pot test; conditions: rate 1000 g/Ha, evaluated after 13 days, scale 0-5
In short: (§1)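 Compounds are applied pre-emergence as an aqueous spray, formulated in 50:50 acetone/water containing 0.5% Tween 20, to pots sown one day earlier. Plants grow in a controlled glasshouse and are scored 13 days later for damage from 0 to 5.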

ABUTH [2] = experiment: as above; conditions: rate 1000 g/Ha, evaluated after 13 days, scale 0-5
In short: as §1

ALOMY [3] = experiment: as above; conditions: rate 1000 g/Ha, evaluated after 13 days, scale 0-5
In short: as §1

ECHCG [4] = experiment: as above; conditions: rate 1000 g/Ha, evaluated after 13 days, scale 0-5
In short: as §1

SETFA [5] = experiment: as above; conditions: rate 1000 g/Ha, evaluated after 13 days, scale 0-5
In short: as §1

AMARE [6] = experiment: as above; conditions: rate 1000 g/Ha, evaluated after 13 days, scale 0-5
In short: as §1

ZEAMX [7] = experiment: Post-emergence herbicidal activity, glasshouse pot test; conditions: Zea mays; application post-emergence; rate 1000 g/Ha; evaluated after 13 days
In short: (§2)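 Pot-grown plants, 8 days after sowing, were sprayed with compound formulated in acetone/water (50:50) with 0.5% Tween 20. Glasshouse conditions 24/16° C day/night, 14 h light, 65% humidity; damage scored after 13 days on a 0 (none) to 5 (total) scale.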

ABUTH [8] = experiment: as above; conditions: Abutilon theophrasti; application post-emergence; rate 1000 g/Ha; evaluated after 13 days
In short: as §2

ALOMY [9] = experiment: as above; conditions: Alopecurus myosuroides; application post-emergence; rate 1000 g/Ha; evaluated after 13 days
In short: as §2

ECHCG [10] = experiment: as above; conditions: Echinochloa crus-galli; application post-emergence; rate 1000 g/Ha; evaluated after 13 days
In short: as §2

SETFA [11] = experiment: as above; conditions: Setaria faberi; application post-emergence; rate 1000 g/Ha; evaluated after 13 days
In short: as §2

AMARE [12] = experiment: as above; conditions: Amaranthus retroflexus; application post-emergence; rate 1000 g/Ha; evaluated after 13 days
In short: as §2

Compound	ZEAMX damage score, application pre-emergence (ZEAMX [1])	ABUTH damage score, application pre-emergence (ABUTH [2])	ALOMY damage score, application pre-emergence (ALOMY [3])	ECHCG damage score, application pre-emergence (ECHCG [4])	SETFA damage score, application pre-emergence (SETFA [5])	AMARE damage score, application pre-emergence (AMARE [6])	Post-emergence herbicidal activity ZEAMX (damage score 0-5) (ZEAMX [7])	Post-emergence herbicidal activity ABUTH (damage score 0-5) (ABUTH [8])	Post-emergence herbicidal activity ALOMY (damage score 0-5) (ALOMY [9])	Post-emergence herbicidal activity ECHCG (damage score 0-5) (ECHCG [10])	Post-emergence herbicidal activity SETFA (damage score 0-5) (SETFA [11])	Post-emergence herbicidal activity AMARE (damage score 0-5) (AMARE [12])
CC1C(O)N(c2cc(C(C)(C)C)ccn2)C(=O)N1C (single isomer, unassigned) [Compound A30]	2	5	4	5	5	5	3	5	5	5	5	5
Cc1cnc(N2C(=O)N(C)C(C)C2O)cc1C(F)(F)F (single isomer, unassigned) [Compound A51]	3	5	4	5	4	5	5	5	5	5	5	5
CON1C(=O)N(c2cc(C(F)(F)F)c(Br)cn2)C(O)C1C (single isomer, unassigned) [Compound A55]	2	5	4	4	4	5	4	5	5	5	5	5
CC(=O)Nc1cnc(N2C(=O)N(C)C(C)C2O)cc1C(F)(F)F (single isomer, unassigned) [Compound A56]	0	5	2	1	1	5	1	5	4	3	2	5
CC1C(O)N(c2cc(C(F)(F)F)c(NC(=O)C(C)(C)C)cn2)C(=O)N1C (single isomer, unassigned) [Compound A57]	1	5	4	3	3	5	4	5	5	5	5	5
CON1C(=O)N(c2cc(C(F)(F)F)c(C)cn2)C(O)C1C (single isomer, unassigned) [Compound A58]	4	5	4	3	3	5	4	5	4	5	5	5
